The nature of data set [1]: Selectivity for Kb of [poly(dAdT)]2 DNA to Kb of [poly(dCdG)]2 DNA.
A short description of data set [2]: physchem. To be noted: octanol/water.
Data set [3] has as its target T1, DNA topoisomerase 1 (Homo sapiens) (UniProt P11387).
T1 sequence (whole entry): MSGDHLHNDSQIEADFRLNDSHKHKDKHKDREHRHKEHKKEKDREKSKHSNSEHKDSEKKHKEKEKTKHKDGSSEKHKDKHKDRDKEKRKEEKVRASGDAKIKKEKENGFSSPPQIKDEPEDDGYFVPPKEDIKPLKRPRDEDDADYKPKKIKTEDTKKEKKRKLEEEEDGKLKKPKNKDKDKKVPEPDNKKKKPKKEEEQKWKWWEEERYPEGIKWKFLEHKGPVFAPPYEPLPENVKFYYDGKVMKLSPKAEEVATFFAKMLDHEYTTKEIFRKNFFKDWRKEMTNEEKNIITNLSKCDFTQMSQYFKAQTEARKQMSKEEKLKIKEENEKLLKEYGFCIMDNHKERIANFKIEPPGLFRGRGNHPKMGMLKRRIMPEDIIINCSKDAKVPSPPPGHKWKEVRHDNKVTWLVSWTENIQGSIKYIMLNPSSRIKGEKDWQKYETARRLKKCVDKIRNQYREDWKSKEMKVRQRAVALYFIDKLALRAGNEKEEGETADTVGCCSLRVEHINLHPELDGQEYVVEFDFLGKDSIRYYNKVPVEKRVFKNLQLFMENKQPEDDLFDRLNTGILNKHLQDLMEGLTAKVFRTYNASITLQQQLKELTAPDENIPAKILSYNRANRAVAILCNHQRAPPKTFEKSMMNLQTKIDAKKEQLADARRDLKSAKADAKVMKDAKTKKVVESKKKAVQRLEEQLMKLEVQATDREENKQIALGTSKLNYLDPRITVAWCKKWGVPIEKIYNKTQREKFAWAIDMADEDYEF
Kind of data set: Inhibition of human DNA topoisomerase 1-induced unwinding activity using Escherichia coli pUC19 DNA assessed as bound compound per nucleotide pair at 24 uM.

In data set [4] the test system is DNA. Kind of data set: Binding affinity to ultrapure calf thymus DNA in MESOO buffer at pH 6.25 at 30 degC by isothermal titration calorimetry assay. It is filed as nucleic-acid assay, Bos taurus. (ITC needs no label: the signal is the heat of the interaction.)

SMILES strings stand for the structures.

The term logP denotes a log measure of how a compound divides between an organic and an aqueous phase. As for `CN(C)c1ccc2c(-c3ccccc3)c3ccc(=[N+](C)C)cc-3[se]c2c1`, the Ratio pKb in data set [1] stood at 3. In data set [2], the logP was 0.09.

Consider `CCN(CC)C(=O)c1sccc1-c1c2ccc(=[N+](C)C)cc-2sc2cc(N(C)C)ccc12`, for which, in data set [3], the Activity stood at 0.9.

`CN(C)c1ccc2c(-c3cccs3)c3ccc(=[N+](C)C)cc-3[se]c2c1` yielded a log partition coefficient (logP) in data set [2] of -0.31.

In data set [4], `CN(C)c1ccc2c(-c3cccs3)c3ccc(=[N+](C)C)cc-3[te]c2c1.F[P-](F)(F)(F)(F)F` displayed a Kd of 2.1 ×10⁶ /M.

For the origin of these results see ChEMBL document CHEMBL1152194, “Substituent control of DNA binding modes in a series of chalcogenoxanthylium photosensitizers as determined by isothermal titration calorimetry and topoisomerase I DNA unwinding assay” (Bioorg Med Chem, 2008).
